Data taken from publication PMC10178204, “Peptaibol Analogs Show Potent Antibacterial Activity against Multidrug Resistant Opportunistic Pathogens” (International Journal of Molecular Sciences, 2023).
Converted amounts (≈) assume the structure as drawn. “And” between values parts separate entries of the source, which are not always exact repeats. Identical values can stand only once. Non-standard residues stand in square brackets, D forms with d. Residues, ends and D or L forms follow the SMILES beside them. *: point of attachment. Octanoyl = CCCCCCCC(=O)*; Aib = CC(C)(N)C(=O)O

Tests used:
[1] = test system: P. aeruginosa VA-182/00 (VIM-2); details: MHB, 5 × 10^5 CFU/mL, 18 h, 35 °C, triplicate
Method: (§1) The minimum inhibitory concentration (MIC) and the minimum bactericidal concentration (MBC) of the compounds were determined in triplicate using Mueller–Hinton broth (MHB). […] Therefore, we decided to dissolve all peptides in DMSO to a final concentration of 25 mg/mL, for consistency. The bacteria inoculum was 5 × 10^5 CFU/mL, as recommended by CLSI (Document M07-A10, 2015). […] Reference-type strains, including representatives of both Gram-positive bacteria (Bacillus subtilis ATCC 6633, Enterococcus faecalis ATCC 29212, Staphylococcus aureus ATCC 25923, the methicillin-resistant Staphylococcus aureus ATCC 43300 (MRSA), Streptococcus pyogenes ATCC 12344) and Gram-negative bacteria (Escherichia coli CCUGT, Klebsiella pneumoniae ATCC 13833, Pseudomonas aeruginosa ATCC 27853, and Acinetobacter baumannii ATCC 17978), were acquired from ATCC or CCUG culture collections. Other antibiotic-resistant clinical isolates were present in our collection at the University Teaching Hospital (Azienda Ospedaliero-Universitaria Senese ‘Santa Maria alle Scotte’) in Siena, Tuscany, Italy. Specifically, MDR carbapenem-hydrolyzing class D β-lactamase-producing Acinetobacter baumannii and metallo-β-lactamase-producing Pseudomonas aeruginosa were used in this study (Table 4).

[2] = test system: S. aureus ATCC 43300 (MRSA); details: MHB, 5 × 10^5 CFU/mL, 18 h, 35 °C, triplicate
Method: as §1

[3] = test system: A. baumannii SI-12 (OXA-23); details: MHB, 5 × 10^5 CFU/mL, 18 h, 35 °C, triplicate
Method: as §1

[4] = test system: A. baumannii SI-310 (OXA-24); details: colistin-resistant isolate; MHB, 5 × 10^5 CFU/mL, 18 h, 35 °C, triplicate
Method: as §1

[5] = test system: P. aeruginosa VR-143/97 (VIM-1); details: MHB, 5 × 10^5 CFU/mL, 18 h, 35 °C, triplicate
Method: as §1

[6] = test system: P. aeruginosa 506/99 (VIM-2); details: MHB, 5 × 10^5 CFU/mL, 18 h, 35 °C, triplicate
Method: as §1

[7] = test system: P. aeruginosa 101/1477 (IMP-1); details: MHB, 5 × 10^5 CFU/mL, 18 h, 35 °C, triplicate
Method: as §1

[8] = test system: A. baumannii SI-648 (OXA-23, OXA-51-like); details: MHB, 5 × 10^5 CFU/mL, 18 h, 35 °C, triplicate
Method: as §1

[9] = test system: Enterococcus faecalis ATCC 29212; details: MHB, 5 × 10^5 CFU/mL, 18 h, 35 °C, triplicate
Excerpt: (§2) The antibacterial activity of the peptides was initially assessed on a panel of representative Gram-positive and Gram-negative organisms of high clinical relevance and commonly responsible for bacterial infections in both animals and humans. Bacillus subtilis ATCC 6633 (Bsu) was also included as a rod-shaped model Gram-positive organism. This first panel comprised: Enterococcus faecalis ATCC 29212 (Efa); Streptococcus pyogenes ATCC 12344 (Spy); and Staphylococcus aureus ATCC 25923 (Sau); Gram-negative: Escherichia coli CCUGT (Eco), Klebsiella pneumoniae ATCC 13833 (Kpn), Acinetobacter baumannii ATCC 17978 (Aba), and Pseudomonas aeruginosa ATCC 27853 (Pae) (Table 2). Both the minimum inhibitory concentration (MIC, Table 2) and the minimum bactericidal concentration (MBC, Table S1, Supporting Material) were determined.
as §1

[10] = test system: Bacillus subtilis ATCC 6633; details: MHB, 5 × 10^5 CFU/mL, 18 h, 35 °C, triplicate
Excerpt: as §2, §1

Escherichia coli CCUGT = details: MHB, 5 × 10^5 CFU/mL, 18 h, 35 °C, triplicate
Excerpt: as §2, §1

[11] = test system: Streptococcus pyogenes ATCC 12344; details: MHB, 5 × 10^5 CFU/mL, 18 h, 35 °C, triplicate
Excerpt: as §2, §1

[12] = test system: Staphylococcus aureus ATCC 25923; details: MHB, 5 × 10^5 CFU/mL, 18 h, 35 °C, triplicate
Excerpt: as §2, §1

[13] = test system: Acinetobacter baumannii ATCC 17978; details: for MBC Aba / MIC Aba: MHB, 5 × 10^5 CFU/mL, 18 h, 35 °C, triplicate
Excerpt: as §2, §1

[14] = test system: Klebsiella pneumoniae ATCC 13833; details: MHB, 5 × 10^5 CFU/mL, 18 h, 35 °C, triplicate
Excerpt: as §2, §1

[15] = test system: Pseudomonas aeruginosa ATCC 27853; details: MHB, 5 × 10^5 CFU/mL, 18 h, 35 °C, triplicate
Excerpt: as §2, §1

[16] = test system: blood agar plate (Columbia CNA Agar); assay: Hemolysis on blood agar plate; details: 35 ± 2 °C, 24 h
Method: Hemolysis zones were visually determined and measured. […] For two additional peptides (6 and 15), only a small hemolysis zone (diameter 4–5 mm) was visible, as compared to that of the positive control (Triton X-100, 13 mm).
Briefly, 2 μL of each peptide solution in DMSO (25 mg/mL), corresponding to 50 μg, was spotted on the surface of a blood agar plate (Columbia CNA Agar, Becton Dickinson Italia S.p.A., Florence, Italy). The plate was then incubated at 35 ± 2 °C for 24 h and visually inspected for the presence of hemolysis zones (see Figure S13, Supplementary Material). The experiment was performed in triplicate. Table 2 reports the average value of the diameter of hemolysis zones measured in each individual experiment. Triton X-100 was used as a positive control (diameter of the hemolysis zone: 13 mm), while DMSO was used as a negative control.
Figure S13. Implementation of the hemolysis test as described in Bechlars et al.. After spotting
2 µL (50 µg) of each compound at a random location on the blood agar plate and incubation at 35 ±
2 °C for 24 h, the plates were manually inspected for the presence of hemolysis zones. Triton X-100
and DMSO were used as the positive and negative controls, respectively. Results were interpreted
(1 picture or pasted object on this page, not shown here)

1-Oct-Aib-Gly-Leu-Aib-Lys-Lys-Leu-Aib-Lys-Ile-Leu-NH2 [Peptide 5b]
MBC P. aeruginosa VA-182/00 (VIM-2) [1]: 32 µg/mL | MIC P. aeruginosa VA-182/00 (VIM-2) [1]: 8 µg/mL | MBC S. aureus ATCC 43300 (MRSA) [2]: 2 µg/mL | MIC S. aureus ATCC 43300 (MRSA) [2]: 2 µg/mL | MBC A. baumannii SI-12 (OXA-23) [3]: 8 µg/mL | MIC A. baumannii SI-12 (OXA-23) [3]: 4 µg/mL | MBC A. baumannii SI-310 (OXA-24) [4]: 4 µg/mL | MIC A. baumannii SI-310 (OXA-24) [4]: 2 µg/mL | MBC P. aeruginosa VR-143/97 (VIM-1) [5]: 32 µg/mL | MIC P. aeruginosa VR-143/97 (VIM-1) [5]: 16 µg/mL and 8 µg/mL | MBC P. aeruginosa 506/99 (VIM-2) [6]: 32 µg/mL | MIC P. aeruginosa 506/99 (VIM-2) [6]: 8 µg/mL | MBC P. aeruginosa 101/1477 (IMP-1) [7]: 8 µg/mL | MIC P. aeruginosa 101/1477 (IMP-1) [7]: 8 µg/mL | MBC A. baumannii SI-648 (OXA-23, OXA-51-like) [8]: 4 µg/mL | MIC A. baumannii SI-648 (OXA-23, OXA-51-like) [8]: 4 μg/mL and 4/4 μg/mL | MBC Efa [9]: 16 µg/mL | MIC Efa [9]: 2 µg/mL | MBC Bsu [10]: 16 µg/mL | MIC Bsu [10]: 2 µg/mL | MBC Eco (Escherichia coli CCUGT): 128 µg/mL | MIC Eco (Escherichia coli CCUGT): 32 µg/mL | MBC Spy [11]: 32 µg/mL | MIC Spy [11]: 2 µg/mL | MBC Sau [12]: 32 µg/mL | MIC Sau [12]: 8 µg/mL | MBC Aba [13]: 32 µg/mL | MIC Aba [13]: 4 µg/mL | MIC against A. baumannii, in molar units ([13]; corresponding to 2 and 8 μg/mL): 1.8 to 7.2 µM | MBC Kpn [14]: 128 µg/mL | MIC Kpn [14]: 32 µg/mL | MBC Pae [15]: 128 µg/mL | MIC Pae [15]: 16 µg/mL

CCCCCCCC(=O)NC(C)(C)C(=O)N[C@@H](CCCCN)C(=O)N[C@@H](CC(C)C)C(=O)NC(C)(C)C(=O)NCC(=O)NCC(=O)N[C@@H](CC(C)C)C(=O)NC(C)(C)C(=O)NCC(=O)N[C@H](C(=O)N[C@@H](CC(C)C)C(N)=O)[C@@H](C)CC [Peptide 2, 1-Oct-Aib-Lys-Leu-Aib-Gly-Gly-Leu-Aib-Gly-Ile-Leu-NH2] (Octanoyl-[Aib]KL[Aib]GGL[Aib]GIL-NH2)
MIC P. aeruginosa VA-182/00 (VIM-2) [1]: > 128 µg/mL | MBC S. aureus ATCC 43300 (MRSA) [2]: 4 µg/mL (≈ 3.48 µM) | MIC S. aureus ATCC 43300 (MRSA) [2]: 2 µg/mL (≈ 1.74 µM) | MBC A. baumannii SI-12 (OXA-23) [3]: 32 µg/mL (≈ 27.8 µM) | MIC A. baumannii SI-12 (OXA-23) [3]: 32 μg/mL and 32/32 μg/mL | MBC A. baumannii SI-310 (OXA-24) [4]: 32 µg/mL (≈ 27.8 µM) | MIC A. baumannii SI-310 (OXA-24) [4]: 32 μg/mL and 32/32 μg/mL | MIC P. aeruginosa VR-143/97 (VIM-1) [5]: > 128 µg/mL | MIC P. aeruginosa 506/99 (VIM-2) [6]: > 128 µg/mL | MIC P. aeruginosa 101/1477 (IMP-1) [7]: > 128 µg/mL | MBC A. baumannii SI-648 (OXA-23, OXA-51-like) [8]: 32 µg/mL (≈ 27.8 µM) | MIC A. baumannii SI-648 (OXA-23, OXA-51-like) [8]: 16 µg/mL (≈ 13.9 µM) | Hemolysis (class) ([16]; 50 μg peptide (2 μL of 25 mg/mL in DMSO) spotted on blood agar, visual, triplicate): + | Hemolysis (d, diameter of hemolysis zone) ([16]; 50 μg spotted on blood agar, average of triplicate): 8 mm | MBC Efa [9]: 8 µg/mL (≈ 6.95 µM) | MIC Efa [9]: 4 µg/mL (≈ 3.48 µM) | MBC Bsu [10]: 16 µg/mL (≈ 13.9 µM) | MIC Bsu [10]: 4 µg/mL (≈ 3.48 µM) | MIC Eco (Escherichia coli CCUGT): > 128 µg/mL | MBC Spy [11]: 4 µg/mL (≈ 3.48 µM) | MIC Spy [11]: 4 µg/mL (≈ 3.48 µM) | MBC Sau [12]: 8 µg/mL (≈ 6.95 µM) | MIC Sau [12]: 8 µg/mL (≈ 6.95 µM) | MBC Aba [13]: 16 µg/mL (≈ 13.9 µM) | MIC Aba [13]: 16 µg/mL (≈ 13.9 µM) | MBC Kpn [14]: > 128 µg/mL | MIC Kpn [14]: 64 µg/mL (≈ 55.6 µM) | MIC Pae [15]: > 128 µg/mL
